Columns and labels:
[1] = molecular target: T1, Cytochrome P450 1A2 (Homo sapiens, UniProt P05177); assay: Inhibition of CYP1A2 in human liver microsomes; format: ADME, Microsome
T1 sequence (P05177 whole entry): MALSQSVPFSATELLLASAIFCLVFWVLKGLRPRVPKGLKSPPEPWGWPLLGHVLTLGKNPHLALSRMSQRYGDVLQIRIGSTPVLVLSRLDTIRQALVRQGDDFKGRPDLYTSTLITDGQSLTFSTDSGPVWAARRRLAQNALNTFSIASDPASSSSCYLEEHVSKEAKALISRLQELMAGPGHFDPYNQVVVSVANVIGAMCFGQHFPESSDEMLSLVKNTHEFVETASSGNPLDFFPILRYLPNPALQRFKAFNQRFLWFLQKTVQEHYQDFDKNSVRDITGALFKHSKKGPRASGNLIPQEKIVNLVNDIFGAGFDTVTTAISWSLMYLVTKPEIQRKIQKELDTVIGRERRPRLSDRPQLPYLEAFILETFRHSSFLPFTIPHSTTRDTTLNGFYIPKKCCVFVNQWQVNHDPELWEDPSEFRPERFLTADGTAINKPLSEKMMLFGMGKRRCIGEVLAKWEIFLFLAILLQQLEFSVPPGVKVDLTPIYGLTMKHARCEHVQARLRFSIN

[2] = molecular target: T2, Amine oxidase [flavin-containing] B (Homo sapiens, UniProt P27338); assay: biochemical
T2 sequence (P27338 whole entry): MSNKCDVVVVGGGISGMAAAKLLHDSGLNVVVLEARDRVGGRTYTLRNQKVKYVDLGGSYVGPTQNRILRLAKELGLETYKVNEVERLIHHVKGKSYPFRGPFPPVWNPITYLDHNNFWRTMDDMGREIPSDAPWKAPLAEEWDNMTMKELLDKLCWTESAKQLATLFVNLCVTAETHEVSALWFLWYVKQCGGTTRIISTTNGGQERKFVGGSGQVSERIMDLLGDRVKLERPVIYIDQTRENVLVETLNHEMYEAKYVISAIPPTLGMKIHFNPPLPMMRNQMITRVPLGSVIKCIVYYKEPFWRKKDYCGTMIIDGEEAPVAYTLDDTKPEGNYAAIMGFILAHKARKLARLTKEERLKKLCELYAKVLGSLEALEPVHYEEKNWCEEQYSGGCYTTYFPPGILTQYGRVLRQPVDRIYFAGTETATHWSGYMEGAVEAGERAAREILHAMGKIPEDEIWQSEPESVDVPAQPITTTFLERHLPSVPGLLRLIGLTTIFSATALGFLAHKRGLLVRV
Description: Inhibition of human recombinant MAO-B expressed in baculovirus infected BTI cells by luminescence assay

[3] = molecular target: Cytochrome P450 2C19 (Homo sapiens, UniProt P33261); assay: Inhibition of CYP2C19 in human liver microsomes; format: ADME, Microsome
Sequence of Cytochrome P450 2C19 (P33261 whole entry): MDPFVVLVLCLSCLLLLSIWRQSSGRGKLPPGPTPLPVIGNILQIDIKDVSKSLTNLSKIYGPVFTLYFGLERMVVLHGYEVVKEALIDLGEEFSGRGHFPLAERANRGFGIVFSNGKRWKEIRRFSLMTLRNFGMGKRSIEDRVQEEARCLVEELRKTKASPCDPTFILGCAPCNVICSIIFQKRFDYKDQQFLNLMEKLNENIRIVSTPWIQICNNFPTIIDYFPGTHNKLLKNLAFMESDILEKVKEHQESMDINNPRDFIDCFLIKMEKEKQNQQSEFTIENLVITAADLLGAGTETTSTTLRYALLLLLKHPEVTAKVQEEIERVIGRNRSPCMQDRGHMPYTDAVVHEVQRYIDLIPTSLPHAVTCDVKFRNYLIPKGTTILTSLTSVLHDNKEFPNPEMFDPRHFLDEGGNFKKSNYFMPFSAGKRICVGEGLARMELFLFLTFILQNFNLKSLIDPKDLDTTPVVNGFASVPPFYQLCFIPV

[4] = molecular target: Cytochrome P450 2D6 (Homo sapiens, UniProt P10635); assay: Inhibition of CYP2D6 in human liver microsomes; format: ADME, Microsome
Sequence of Cytochrome P450 2D6 (P10635 whole entry): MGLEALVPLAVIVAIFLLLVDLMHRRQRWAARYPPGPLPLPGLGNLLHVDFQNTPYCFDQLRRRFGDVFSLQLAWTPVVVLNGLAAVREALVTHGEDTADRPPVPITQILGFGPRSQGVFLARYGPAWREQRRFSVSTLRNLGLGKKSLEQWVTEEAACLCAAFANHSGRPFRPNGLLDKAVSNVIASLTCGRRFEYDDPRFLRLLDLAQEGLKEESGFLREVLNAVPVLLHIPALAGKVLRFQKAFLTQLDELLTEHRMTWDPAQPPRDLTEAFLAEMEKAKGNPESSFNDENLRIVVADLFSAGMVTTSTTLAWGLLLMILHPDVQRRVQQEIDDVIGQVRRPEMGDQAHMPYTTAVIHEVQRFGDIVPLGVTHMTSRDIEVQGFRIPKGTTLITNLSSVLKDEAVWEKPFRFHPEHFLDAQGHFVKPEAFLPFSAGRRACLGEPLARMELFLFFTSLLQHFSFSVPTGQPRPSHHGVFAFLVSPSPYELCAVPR

[5] = molecular target: T3, Amine oxidase [flavin-containing] A (Homo sapiens, UniProt P21397); assay: biochemical
T3 sequence (P21397 whole entry): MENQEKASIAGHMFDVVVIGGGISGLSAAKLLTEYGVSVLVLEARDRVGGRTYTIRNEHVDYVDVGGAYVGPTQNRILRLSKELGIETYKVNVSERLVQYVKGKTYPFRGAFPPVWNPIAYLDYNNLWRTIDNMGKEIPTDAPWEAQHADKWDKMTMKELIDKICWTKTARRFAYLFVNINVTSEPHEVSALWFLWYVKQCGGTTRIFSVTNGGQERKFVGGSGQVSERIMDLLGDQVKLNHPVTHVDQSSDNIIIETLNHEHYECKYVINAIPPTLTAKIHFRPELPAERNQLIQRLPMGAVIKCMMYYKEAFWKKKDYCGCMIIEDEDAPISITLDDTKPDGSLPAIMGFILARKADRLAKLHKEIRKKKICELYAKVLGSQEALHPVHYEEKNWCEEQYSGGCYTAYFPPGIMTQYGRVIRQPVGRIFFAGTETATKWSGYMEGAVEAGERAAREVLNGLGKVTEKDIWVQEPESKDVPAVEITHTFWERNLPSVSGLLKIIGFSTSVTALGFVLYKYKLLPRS
Description: Inhibition of human recombinant MAO-A expressed in baculovirus infected BTI cells by luminescence assay

[6] = molecular target: T4, Lysine-specific histone demethylase 2 (Homo sapiens, UniProt Q8NB78); assay: Inhibition of N-terminal GST-tagged recombinant full length human LSD2 expressed in Baculovirus using Bio- H3K4me2 (1 to 24 residues) as substrate incubated for 1 hr by TR-FRET assay
T4 sequence (Q8NB78 whole entry): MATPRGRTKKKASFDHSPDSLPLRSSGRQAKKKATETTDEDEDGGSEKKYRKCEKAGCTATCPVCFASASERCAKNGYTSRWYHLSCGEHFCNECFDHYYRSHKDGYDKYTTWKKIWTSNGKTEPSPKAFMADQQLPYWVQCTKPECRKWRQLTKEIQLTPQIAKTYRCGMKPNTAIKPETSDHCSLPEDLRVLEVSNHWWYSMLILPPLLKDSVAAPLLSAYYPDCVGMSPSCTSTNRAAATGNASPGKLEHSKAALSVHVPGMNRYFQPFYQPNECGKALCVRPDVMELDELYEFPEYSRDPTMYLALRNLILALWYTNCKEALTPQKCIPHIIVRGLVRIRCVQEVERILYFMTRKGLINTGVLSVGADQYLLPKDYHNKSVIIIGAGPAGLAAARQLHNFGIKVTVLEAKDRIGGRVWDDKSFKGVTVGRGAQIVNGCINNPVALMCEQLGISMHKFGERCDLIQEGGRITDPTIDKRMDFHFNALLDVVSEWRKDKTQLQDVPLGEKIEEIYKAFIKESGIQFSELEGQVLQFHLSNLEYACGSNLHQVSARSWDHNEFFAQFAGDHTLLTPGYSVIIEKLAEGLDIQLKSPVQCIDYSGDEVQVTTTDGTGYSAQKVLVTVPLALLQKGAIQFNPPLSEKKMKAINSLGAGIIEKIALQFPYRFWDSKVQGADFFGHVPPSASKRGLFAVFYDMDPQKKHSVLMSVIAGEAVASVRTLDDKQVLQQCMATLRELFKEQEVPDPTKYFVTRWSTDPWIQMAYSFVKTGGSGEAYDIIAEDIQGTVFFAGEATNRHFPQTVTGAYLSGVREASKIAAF

[7] = molecular target: Cytochrome P450 2C9 (Homo sapiens, UniProt P11712); assay: Inhibition of CYP2C9 in human liver microsomes; format: ADME, Microsome
Sequence of Cytochrome P450 2C9 (P11712 whole entry): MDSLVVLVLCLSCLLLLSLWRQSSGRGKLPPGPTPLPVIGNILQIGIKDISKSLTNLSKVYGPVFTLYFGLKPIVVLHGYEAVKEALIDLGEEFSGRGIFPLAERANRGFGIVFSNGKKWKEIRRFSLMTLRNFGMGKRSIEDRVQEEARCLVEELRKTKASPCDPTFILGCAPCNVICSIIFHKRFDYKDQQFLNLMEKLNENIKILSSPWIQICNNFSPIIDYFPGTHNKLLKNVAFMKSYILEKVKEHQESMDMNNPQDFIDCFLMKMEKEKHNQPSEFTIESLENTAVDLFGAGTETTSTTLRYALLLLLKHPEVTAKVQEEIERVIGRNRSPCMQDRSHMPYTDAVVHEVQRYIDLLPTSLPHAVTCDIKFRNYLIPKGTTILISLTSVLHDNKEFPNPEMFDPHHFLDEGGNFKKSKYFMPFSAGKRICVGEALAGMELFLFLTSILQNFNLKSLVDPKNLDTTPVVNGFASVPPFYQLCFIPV

[8] = molecular target: Cytochrome P450 3A4 (Homo sapiens, UniProt P08684); assay: Inhibition of CYP3A4 in human liver microsomes; format: ADME, Microsome
Sequence of Cytochrome P450 3A4 (P08684 whole entry): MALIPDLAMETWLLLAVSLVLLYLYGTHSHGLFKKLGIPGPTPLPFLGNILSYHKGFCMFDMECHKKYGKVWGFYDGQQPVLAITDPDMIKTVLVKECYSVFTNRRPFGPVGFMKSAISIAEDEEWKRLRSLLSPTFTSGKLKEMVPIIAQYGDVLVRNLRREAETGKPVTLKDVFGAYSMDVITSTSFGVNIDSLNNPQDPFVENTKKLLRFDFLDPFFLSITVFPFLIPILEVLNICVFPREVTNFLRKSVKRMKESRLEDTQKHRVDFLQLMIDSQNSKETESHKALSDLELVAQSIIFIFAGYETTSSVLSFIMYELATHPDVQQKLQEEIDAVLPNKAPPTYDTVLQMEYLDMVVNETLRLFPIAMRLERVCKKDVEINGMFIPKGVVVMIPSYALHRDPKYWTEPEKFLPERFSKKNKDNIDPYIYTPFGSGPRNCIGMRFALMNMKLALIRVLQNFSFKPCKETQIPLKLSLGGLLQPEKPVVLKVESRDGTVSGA

[9] = test system: NCI-H526; assay: Antiproliferative activity against human NCI-H526 cells assessed as inhibition of cell growth incubated for 240 hrs by MTS assay; format: functional, cell-based; conditions: NCI-H526, 240 h
[10] = test system: MV4-11; assay: Antitumor activity against human MV4-11 cells xenografted in Nu/Nu female mouse model assessed as reduction in tumor volume at 20 mg/kg, po qd and measured on day 17 (reference value: 1187+/-508 mm3); format: functional; conditions: time 17 day
[11] = test system: Kasumi 1; assay: Antiproliferative activity against human Kasumi 1 cells assessed as inhibition of cell growth incubated for 240 hrs by MTS assay; format: functional, cell-based; conditions: Kasumi 1, 240 h
[12] = Upregulation of CD86 mRNA expression level in human MV4-11 cells measured after 24 hrs by RT-qPCR analysis; format: functional, cell-based; conditions: MV4-11, 24 h
[13] = test system: MV4-11; assay: Antitumor activity against human MV4-11 cells xenografted in Nu/Nu female mouse model assessed as reduction in tumor volume at 20 mg/kg, po qd measured immediately (reference value: 131+/-53 mm3); format: functional
[14] = test system: MV4-11; assay: Antitumor activity against human MV4-11 cells xenografted in Nu/Nu female mouse model assessed as relative tumor growth rate at 20 mg/kg, po qd and measured on day 17 relative to control; format: functional; conditions: time 17 day
[15] = test system: MV4-11; assay: Antitumor activity against human MV4-11 cells xenografted in Nu/Nu female mouse model assessed as tumor growth inhibition at 20 mg/kg, po qd and measured on day 17 relative to control; format: functional; conditions: MV4-11, 408 h, time 17 day, read-out: TGI
[16] = test system: MV4-11; assay: Antitumor activity against human MV4-11 cells xenografted in Nu/Nu female mouse model assessed as relative tumor volume at 20 mg/kg, po qd and measured on day 17 (reference value: 9.52+/-4.19); format: functional; conditions: time 17 day
[17] = test system: MV4-11; assay: Antitumor activity against human MV4-11 cells xenografted in Nu/Nu female mouse model assessed as tumor growth inhibition at 20 mg/kg, sc administered 5 days per week and measured on day 17 relative to control; format: functional; conditions: MV4-11, 408 h, time 17 day, read-out: TGI
[18] = test system: MV4-11; assay: Antitumor activity against human MV4-11 cells xenografted in Nu/Nu female mouse model assessed as reduction in tumor volume at 20 mg/kg, sc administered 5 days per week and measured on day 17 (reference value: 1187+/-508 mm3); format: functional; conditions: time 17 day
[19] = test system: MV4-11; assay: Antitumor activity against human MV4-11 cells xenografted in Nu/Nu female mouse model assessed as relative tumor volume at 20 mg/kg, sc administered 5 days per week and measured on day 17 (reference value: 9.52+/-4.19); format: functional; conditions: time 17 day
[20] = test system: MV4-11; assay: Antitumor activity against human MV4-11 cells xenografted in Nu/Nu female mouse model assessed as reduction in tumor volume at 20 mg/kg, sc measured immediately (reference value: 131+/-53 mm3); format: functional
[21] = test system: MV4-11; assay: Antitumor activity against human MV4-11 cells xenografted in Nu/Nu female mouse model assessed as relative tumor growth rate at 20 mg/kg, sc administered 5 days per week and measured on day 17 relative to control; format: functional; conditions: time 17 day

SMILES | IC50 [1] [µM] | IC50 [2] [µM] | IC50 [3] [µM] | IC50 [4] [µM] | IC50 [5] [µM] | IC50 [6] [µM] | IC50 [7] [µM] | IC50 ([8]; read-out: IC50) [µM] | also measured
COc1ccc(-c2c(-c3ccc(C#N)c(F)c3)nc(N3CCC(N)CC3)n(C)c2=O)cc1F [PULRODEMSTAT] |  |  |  |  |  |  |  |  | IC50 [9]: 0.01 µM; Activity [10]: 554 mm3; IC50 [11]: 0.003 µM; EC50 [12]: 0.032 µM; Activity [13]: 132 mm3; Activity [14]: 39.33%; inhibition in vivo at 20 mg/kg [15]: 64.2%; Activity [16]: 3.75
Cc1cc(C)c(-c2ncc3c(cc(CN4CC[C@H](N)C4)n3CC(F)(F)F)c2-c2ccc(C#N)c(F)c2)cc1C | > 50 | > 20 | 22 | 20.4 | > 20 | > 20 | 27.3 | 7.74 | 
Nc1ccn([C@@H]2O[C@H](CO)[C@@H](O)[C@@H]2O)c(=O)n1 [CYTARABINE] |  |  |  |  |  |  |  |  | inhibition in vivo at 20 mg/kg [17]: 54.7%; Activity [18]: 741 mm3; Activity [19]: 5.65; Activity [20]: 131 mm3; Activity [21]: 59.36%
Cc1cc(C)c(-c2ncc3c(cc(CN4CC[C@H](N)C4)n3C(C)C)c2-c2ccc(C#N)c(F)c2)cc1C | > 50 | > 20 |  | 46.7 | > 20 | > 20 | 32.9 |  | IC50 [8]: 4.53 µM
Cc1cc(-c2ncc3c(cc(CN4CC[C@H](N)C4)n3C(C)C)c2-c2ccc(C#N)c(F)c2)cc(C)c1C | > 50 | > 20 | 17.9 | > 50 | > 20 | > 20 | 30 | 4.96 | 

Now from value to molecule, other results behind:

IC50 [1] [µM] | IC50 [2] [µM] | IC50 [3] [µM] | IC50 [4] [µM] | IC50 [5] [µM] | IC50 [6] [µM] | IC50 [7] [µM] | IC50 ([8]; read-out: IC50) [µM] | SMILES | also measured
> 50 | > 20 | 24.8 | 43.1 | > 20 | > 20 | 28.8 | 9.46 | Cc1ccc(-c2ncc3c(cc(CN4CC[C@H](N)C4)n3C(C)C)c2-c2ccc(C#N)c(F)c2)cc1C | 
 | > 20 |  |  | > 20 | > 20 |  |  | CCn1c(CN2CC[C@H](N)C2)cc2c(-c3ccc(C#N)c(F)c3)c(-c3cc(C)c(C)c(C)c3)ncc21 | 
 | > 20 |  |  | > 20 | > 20 |  |  | Cc1cc(C)c(-c2ncc3c(cc(CN4CC[C@H](N)C4)n3CC(F)F)c2-c2ccc(C#N)c(F)c2)cc1C | 
> 50 | > 20 | 25.8 | 45.7 | > 20 | > 20 | 45.5 | 20.9 | Cc1ccc(-c2ncc3c(cc(CN4CC[C@H](N)C4)n3CC(F)F)c2-c2ccc(C#N)c(F)c2)cc1C | 
 | > 20 |  |  | > 20 | > 20 |  |  | Cc1cc(C)c(-c2ncc3c(cc(CN4CC[C@H](N)C4)n3C)c2-c2ccc(C#N)c(F)c2)cc1C | 

From ChEMBL document CHEMBL6074676, “Optimization and Biological Evaluation of Novel 1H-Pyrrolo[2,3-c]pyridin Derivatives as Potent and Reversible Lysine Specific Demethylase 1 Inhibitors for the Treatment of Acute Myelogenous Leukemia” (J Med Chem, 2024)
